# Values of other authors in US20180169172A1, “COMPOUND AND METHOD FOR REDUCING APPETITE, FATIGUE AND PAIN” (priority 2018, published 2018).
# Like-named read-outs stand apart in the source and are kept apart here.
# Experiments:
# [1] = microplate reader determination
# [2] = not given; remark: listed apart in the source
# [3] = not given; remark: listed apart in the source
# [4] = not given; remark: listed apart in the source
# rodents = conditions: dose levels of 800-900 mg/kg in rodents
# rats = conditions: 200 mg/kg in rats; mitragynine given orally
# Kratom users = conditions: even after chronic and high dosage consumption
# [5] = biological target: μ-subtype opioid receptor (MOR) (Homo sapiens, UniProt P35372)
# μ-subtype opioid receptor (MOR), sequence (P35372 whole entry): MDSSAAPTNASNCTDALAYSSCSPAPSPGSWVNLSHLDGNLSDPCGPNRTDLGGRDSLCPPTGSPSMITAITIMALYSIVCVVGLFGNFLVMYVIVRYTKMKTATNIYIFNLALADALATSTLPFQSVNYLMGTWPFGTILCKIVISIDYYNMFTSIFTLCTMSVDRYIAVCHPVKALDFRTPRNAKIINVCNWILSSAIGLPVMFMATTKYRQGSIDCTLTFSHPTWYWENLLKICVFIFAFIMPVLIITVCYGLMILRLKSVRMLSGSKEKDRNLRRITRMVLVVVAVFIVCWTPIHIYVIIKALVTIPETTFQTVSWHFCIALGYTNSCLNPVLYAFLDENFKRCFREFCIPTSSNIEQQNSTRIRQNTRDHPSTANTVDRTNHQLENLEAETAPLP
# animal = animal studies, versus codeine
# skeletal muscle = conditions: rat, in vivo
# [6] = test system: compound nerve action potential; conditions: 2 mg/mL
# pain = conditions: by mouth, immediate-release formulation
# mice = conditions: even upon oral administration
# gastrointestinal transit = conditions: subcutaneous, mice
# [7] = nine subjects, oral Kratom tea, loading dose
smiles,measurement,setting,value
"CC[C@@H]1CN2CCc3c([nH]c4cccc(OC)c34)[C@@H]2C[C@@H]1/C(=C\OC)C(=O)OC [mitragynine, (αE,2S,3S,12bS)-3-ethyl-1,2,3,4,6,7,12,12b-octahydro-8-methoxy-α-(methoxymethylene)-indolo[2,3-a]quinolizine-2-acetic acid methyl ester]",pKa,[1],8.08±0.04
same,logP,,1.73
same,stability in acid,[2]; acidic environments,acid labile
same,water solubility,[2]; water,< 100 µg/mL
same,solubility,[2]; water and basic media,poor solubility in water and basic media
same,total drug release in dissolution,[3]; simulated gastric fluid (SGF),higher
same,total drug release in dissolution,[3]; simulated intestinal fluid (SIF),prolonged and incomplete
same,urine excretion of unchanged form,[4]; 24-hour period,0.14%
same,apparent volume of distribution,[4]; [7],38.04 ± 24.32 L/kg
same,terminal half-life,[4]; [7],23.24 ± 16.07 h
same,time to reach the maximum plasma concentration,[4]; [7],0.83 ± 0.35 h
same,toxicity,rodents,no toxicity
same,lethality,rats,lethal effects
same,mortalities following consumption alone,Kratom users,no reports of mortalities
same,agonism at μ-subtype opioid receptor,[5],selective and full agonists
same,antinociceptive effect,animal,comparable to those of codeine
same,cough-suppressant effect,animal,comparable to those of codeine
same,skeletal muscle relaxation,skeletal muscle,produced skeletal muscle relaxation
same,"nerve conduction, amplitude and duration of compound nerve action potential",[6],blocked
same,2-deoxy-D-glucose-stimulated gastric acid secretion,"gastric acid secretion; administration into fourth ventricle of anesthetized rats, reversed by naloxone",inhibition
same,basal gastric acid secretion,gastric acid secretion; administration into the lateral ventricle,did not alter
"COc1cccc(C2(O)CCCCC2CN(C)C)c1 (stereo not shown) [Tramadol, tramadol]",onset of pain relief,pain,within an hour
"CC[C@@H]1CN2CC[C@@]3(O)C(=Nc4cccc(OC)c43)[C@@H]2C[C@@H]1/C(=C\OC)C(=O)OC [7-hydroxymitragynine, (αE,2S,3S,7aS,12bS)-3-ethyl-1,2,3,4,6,7,7a,12b-octahydro-7a-hydroxy-8-methoxy-α-(methoxymethylene)-indolo [2,3-a]quinolizine-2-acetic acid methyl ester]",analgesic potency relative to morphine,mice,several times more potent analgesic than morphine
same,agonism at μ-subtype opioid receptor,[5],selective and full agonists
same,gastrointestinal transit,gastrointestinal transit,caused an inhibition
